One test concerns tinnitus. Nature of the test: Case reports: tinnitus in patients treated with sildenafil citrate. Type of test: in vivo, human. From the text: A person suffering for several years from severe tinnitus and hearing loss in their right ear had repeatedly sought medical advice and tried many alleged therapies for their tinnitus, none of which was effective. […] Other than that they are in good health and receives no medications. Recently they were prescribed sildenafil citrate for improving their sexual performance. […] A person known to have bilateral tinnitus and hearing loss for more than 20 years. Other than hypertension, for which they are treated, they are in good health. They were prescribed sildenafil citrate, 25 mg daily, for the tinnitus.

For the next test, the system named is hearing loss. Nature of the test: Case report: hearing loss / audiogram in patient treated with sildenafil citrate. It counts as in vivo, human. From the text: A person suffering for several years from severe tinnitus and hearing loss in their right ear had repeatedly sought medical advice and tried many alleged therapies for their tinnitus, none of which was effective. […] Other than that they are in good health and receives no medications. Recently they were prescribed sildenafil citrate for improving their sexual performance. […] For instance, at frequencies of 500-1000 Hz, hearing in their right ear improved from 50-55 dB to 30 dB.

Where [1] appears, read: patients suffering from tinnitus.

Structures can show the parent of a compound that is named as a salt.

Turning to `CCCc1nn(C)c2c(=O)[nH]c(-c3cc(S(=O)(=O)N4CCN(C)CC4)ccc3OCC)nc12` [sildenafil citrate, 1-[[3-(6,7-dihydro-1-methyl-7-oxo-3-propyl-1H-pyrazolo [4,3-d]pyrimidin-5-yl)-4-ethoxyphenyl]sulfonyl]4-methylpiperazine citrate], the effect on tinnitus result in the test on tinnitus (Example 1: person, severe tinnitus in right ear, first course of sildenafil citrate) is given as “amelioration of the tinnitus, which eventually nearly disappeared”; in the test on tinnitus (Example 2: person, bilateral tinnitus, 25 mg daily, starting after the 5th daily dose, persisted as long as drug taken) it was “marked reduction in their tinnitus”. For the same compound, the “tinnitus status on continued treatment” value in the test on tinnitus (Example 1: person, continues on sildenafil citrate) was “practically tinnitus-free”. For the same compound, in the test on tinnitus (Example 1: person, intentional stop of the medication), the “return of the tinnitus after cessation of the medication” value is reported as 2-3 weeks. For the same compound, the “severity of tinnitus on rechallenge” value in the test with tinnitus (Example 1: person, rechallenge 25 mg twice weekly) was “reduced the severity of tinnitus within a week and proceeded to almost complete disappearance of the symptom”. Moreover, in the test with hearing loss (Example 1: after several months treatment), the “audiogram (overall)” value was “marked improvement”. The “hearing in right ear after treatment (audiogram)” value in the test with hearing loss (Example 1: frequencies of 500-1000 Hz, after several months treatment, improved from 50-55 dB before treatment) is recorded as 30 dB. In addition, the “hearing (patient report)” value in the test on hearing loss (Example 1: person, hearing loss in right ear, on continued treatment) is “significant improvement in their hearing”.

`CCCc1nn(C)c2c(=O)[nH]c(-c3cc(S(=O)(=O)N4CCN(C)CC4)ccc3OCC)nc12` [sildenafil]: the “effect on tinnitus (general statement)” value with tinnitus (setting [1]) is reported as “effective in reducing tinnitus”. Moreover, the “effect on hearing loss (general statement)” value with hearing loss (setting [1]) was “ameliorating hearing loss”.

(Values after US6693107B1, “Pharmaceutical composition useful for the treatment of tinnitus and hearing loss” (priority 1999, dated 2004).)
